Data taken from PubChem BioAssay (NCI).
Several values for one entry are separate records, joined by “and”; a condition that tells them apart may be missing. Identical values can stand only once.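 Grown in 96-well plates, cells were treated for 48 hours with each compound at five concentrations. Insufficient inhibition: endpoint recorded as highest concentration tested. At the GI50, growth is halved. Definition used: TGI = concentration required for complete inhibition of growth.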

What was measured:
Experiment in all cases: growth of human tumour cells (NCI), 48 h
NCI/ADR-RES ovarian = test system: NCI/ADR-RES ovarian
CAKI-1 renal = test system: CAKI-1 renal
OVCAR-8 ovarian = test system: OVCAR-8 ovarian
BT-549 breast = test system: BT-549 breast
PC-3 prostate = test system: PC-3 prostate
M14 melanoma = test system: M14 melanoma
SW-620 colon = test system: SW-620 colon
CCRF-CEM leukemia = test system: CCRF-CEM leukemia
SK-MEL-5 melanoma = test system: SK-MEL-5 melanoma
A498 renal = test system: A498 renal

Row | SMILES | GI50 (NCI/ADR-RES ovarian) | TGI (NCI/ADR-RES ovarian) | GI50 (CAKI-1 renal) | TGI (CAKI-1 renal) | GI50 (OVCAR-8 ovarian) | TGI (OVCAR-8 ovarian) | GI50 (BT-549 breast) | TGI (BT-549 breast) | GI50 (PC-3 prostate) | TGI (PC-3 prostate) | GI50 (M14 melanoma) | TGI (M14 melanoma) | GI50 (SW-620 colon) | TGI (SW-620 colon) | GI50 (CCRF-CEM leukemia) | TGI (CCRF-CEM leukemia) | GI50 (SK-MEL-5 melanoma) | TGI (SK-MEL-5 melanoma) | GI50 (A498 renal) | TGI (A498 renal)
1 | Cc1ccc(NC(=O)/C=C/c2ccccc2)c(C(N)=O)c1 | 2.54 µM | 18.2 µM | 6.78 µM | > 59.4 µM | 7.38 µM | > 100 µM | 12.5 µM | > 100 µM | 4.07 µM | > 100 µM | 2.12 µM | > 100 µM | 2.5 µM | > 100 µM | 2.33 µM | > 29.2 µM | 1.94 µM | > 41.5 µM | 3.61 µM | 34.6 µM
2 | O=S(=O)(NCCNC/C=C/c1ccc(Br)cc1)c1cccc2cnccc12 | 12.3 µM and 14.3 µM | 28.8 µM and 32.3 µM | 4.15 µM and 9.99 µM | 18 µM and 27 µM | 13 µM and 15.6 µM | 28.5 µM and 32.3 µM | 3.09 µM and 7.89 µM | 12.7 µM and 21.6 µM | 7.18 µM and 11.2 µM | 21.2 µM and 24.5 µM | 12.8 µM and 15.3 µM | 26.4 µM and 30.9 µM | 12.6 µM and 16.8 µM | 27.6 µM and 32.4 µM | 3.45 µM and 13.3 µM | 20.6 µM and 34.2 µM | 6.07 µM and 13.3 µM | 19.3 µM and 26.5 µM | 8.86 µM and 11.8 µM | 23.8 µM and 25.1 µM
3 | N/C(=N\N=C\c1ccc(-c2ccccc2)cc1)N[N+](=O)[O-] | 1.46 µM | > 86.1 µM | 4.17 µM | > 100 µM | 5.61 µM | > 100 µM | 17.1 µM | > 100 µM | 3.81 µM | > 100 µM | 1.65 µM | > 100 µM | 0.796 µM | > 100 µM | 3.1 µM | > 100 µM | 3.52 µM | > 100 µM | 0.418 µM | 7.58 µM
4 | O=C1C(=O)c2c(nc3ccc(Cl)cn23)-c2ccccc21 | 0.344 µM | 2.04 µM | 0.477 µM | 1.04 µM | 0.471 µM | 1.91 µM | 0.502 µM | 1.21 µM | 1.2 µM | 10.6 µM | 1.3 µM | 3.05 µM | 0.292 µM | 1.03 µM | 0.411 µM | 3.68 µM | 0.161 µM | 0.309 µM | 1.64 µM | 3.11 µM
5 | CC(CN1CCN(CCOCCO)CC1)CN1c2ccccc2Sc2ccc(Cl)cc21 (stereo not given) | 4.39 µM | 18.1 µM | 4.37 µM | 17.1 µM | 4.99 µM | 18.9 µM | 2.45 µM | 6.67 µM | 2.6 µM | 10.6 µM | 1.85 µM | 3.46 µM | 1.84 µM | 3.58 µM | 2.68 µM | 8.74 µM | 1.69 µM | 3.07 µM | 1.78 µM | 5.08 µM
